Source: article PMC6199279, “Design of Peptoid-peptide Macrocycles to Inhibit the β-catenin TCF Interaction in Prostate Cancer” (Nature Communications, 2018)
Like-named read-outs stand apart in the source and are kept apart here. Numbered stars: 1 amine (or outer) side, 2 acyl side, 3 side chain; on linkers, the order of the positions; unused ones are H or OH. Square brackets hold non-standard residues; d marks the D form. Peptide text beside a SMILES is read from it. N(2-(2-PhOPh)Et)Gly = O=C(O)CNCCc1ccccc1Oc1ccccc1; Gly(N-3,5-(OMe)2-Ph) = COc1cc(NCC(=O)O)cc(OC)c1; X1 = COc1ccc([C@H](C)N(CC(=O)[*:2])[*:1])cc1; N((CH2)3OiPr)Gly = CC(C)OCCCNCC(=O)O

How the values were obtained:
LNCaP-abl spheroids = tested on: LNCaP-abl spheroids
Description: To evaluate the impact of the compounds under 3D cell culture conditions thought to be more representative of tumors, we grew LNCaP-abl cells in low attachment plates. The effects on spheroid formation and growth were evaluated following treatment with vehicle, 13, or linear 13 administered at the time of seeding at low cell density in a 384-well plate. In a separate experiment, to test the impact on pre-formed spheroids, cells were treated 5 days after initial seeding. Spheroids from both experiments were grown for 22 days, with compound refreshed on days 5, 9, 13, 16, and 20. […] PrestoBlue was used to measure cell viability on day 22 (Fig. 5b). […] Figure 5c–f depicts spheroid area over time based on size measurements from the images taken throughout the experiment.
Scale bar represents 400 μm. b End point viability measurements taken on day 22 using PrestoBlue. c–f Time course of spheroid areas calculated from images taken throughout the experiment.
LNCaP-abl cells were seeded into 384-well ultra-low attachment plates (Corning), 1000 cells/well. Varying concentrations of compound were added either on the same day as seeding or on day 5. Media was changed every 3–4 days using a Biotek automated media exchanger. Images were taken using an ArraySca VTI (Cellomics) on days 5, 9, 13, 16, 20, and 22. Images were analyzed for spheroid area with the HCS Studio Cellomics Scan Version 6.6.0 (Thermo) software. A final viability measurement was taken on day 22 using PrestoBlue reagent (Thermo).

[1] = tested on: LNCaP-abl and LNCaP-95 cells; experiment: RT-qPCR of Wnt and AR target genes; assay type: cell-based; conditions: 10 µM, 24 h
Description: To test the effect of 13 in a model of prostate cancer, we used the LNCaP-abl and LNCaP-95 cell lines. These cell lines were derived from androgen-sensitive LNCaP cells, and passaged in androgen-deprived media to mimic the development of castration resistance in patient tumors[54],[55]. We first isolated mRNA from LNCaP-abl and LNCaP-95 cells treated with vehicle, 10 µM 13 and linear 13 for 24 h to check the expression of endogenous Wnt and AR target genes (Fig. 4a). […] AR-V7 is particularly challenging to target as most AR antagonists target the ligand binding domain. […] To check if the changes in Wnt and AR target gene expression translated into effects on growth, the viability of LNCaP-abl and LNCaP-95 cells was determined after 5 days of treatment (Fig. 4b).
Data are presented as mean and SD (n = 3) of three independent experiments (a) or representative of three independent experiments (b, c).
LNCaP-abl and LNCaP-95 cells were cultured in indicator free RPMI 1640 media (Life) supplemented with 10% charcoal stripped FBS, 1% pennicillin/streptomycin, and 1% L-Glutamine. HEK-293 Cells were cultured in DMEM media (Life) supplemented with 10%FBS and 1% pennicillin/streptomycin. A549 and U2OS cells were cultured in RPMI 1640 media (Life) and McCoy’s 5 A modified media (Life), respectively, both supplemented with 10%FBS and 1% pennicillin/streptomycin. LNCaP-abl, and LNCaP-95 cell lines were generous gifts from Z. Culig (Innsbruck Medical University, Austria) and J. Isaacs (Johns Hopkins University, Baltimore, MD), respectively. Cell lines were authenticated by STR profiling (Genetica Cell Line Testing; Burlington, NC). A549 and U2OS were purchased from ATCC (product numbers CCL-185 and HTB-96). Cell lines were routinely screened for mycoplasma. Luciferase assays were conducted using stably transfected TOP-flash and 3xARE LNCaP-abl cell lines. For the Wnt pathway, TOP-Flash LNCaP-abl cells were treated with 1 nM siAPC (a 1:1:1 mix of Ambion Silencer Silect siAPC RNA, ID#s s1433, s1434, s1435) for 24 h and seeded into 384-well plates at 5000 cells/well, followed by 24 h of treatment with compound. For the AR-pathway, 3xARE LNCaP-abl cells were seeded into 384-well plates at 5000 cells per well, treated for 48 h with compound, with the addition of R1881 for the final 8 h. Both were measured using the ONE-Glo detection kit (Promega) and data is standardized to CellTiter-Fluor (Promega) viability readings to account for potential variations in well to well cell number. Control Wnt inhibitors were purchased from Sigma with the exception of PRI-724 which was purchased from Selleckchem. Co-immunoprecipitation was carried out using HEK293 cells transfected with either myc-TCF (addgene #32738) or myc-TCF dominant negative (addgene #32739) followed by 48 h of treatment with compound. Cells were lysed using Triton lysis buffer and 1 mg total protein was incubated overnight at 4 C with 40 µl anti-cMyc magnetic beads (Thermo). Total protein concentration in cell lysates were determined using Pierce Rapid Gold BCA Protein Assay Kit (Thermo). The beads were washed 3× with lysis buffer then boiled in 2X sample loading dye.

With `COc1ccc([C@H](C)N2CC(=O)N[C@H](C)C(=O)N(CCc3ccccc3Oc3ccccc3)CC(=O)N(c3cc(OC)cc(OC)c3)CC(=O)N(CCCOC(C)C)CC(=O)N([C@@H](C)c3ccc(OC)cc3)CC2=O)cc1` [Compound 13] (cyclo([dA][N(2-(2-PhOPh)Et)Gly][Gly(N-3,5-(OMe)2-Ph)][N((CH2)3OiPr)Gly][X1][X1])) the “Spheroid growth, compound added day 0” value (LNCaP-abl spheroids; 0.5 µM) was “slowed growth”, the “Spheroid formation, compound added day 0” value (LNCaP-abl spheroids; 20 µM, 10 µM, 5 µM, 2 µM and 1 µM) was “prevented spheroid formation” and the “Growth of pre-formed spheroids, treatment started day 5” value (LNCaP-abl spheroids; at or above 2 µM) was “stalled the growth of pre-formed spheroids”. For the same molecule, the “Spheroid growth, low concentrations” value (LNCaP-abl spheroids; between 0.001 µM and 0.1 µM) was “little effect”, the IC50 (LNCaP-abl spheroids; read-out: IC50 spheroid proliferation, treatment started Day 0, PrestoBlue viability on day 22, compound added at seeding) was 694 nM and the IC50 (LNCaP-abl spheroids; read-out: IC50 spheroid proliferation, treatment started Day 5, PrestoBlue viability on day 22, pre-formed spheroids) was 1340 nM. The “AR mRNA” value [1] was “decreased”, the AR-V7 transcription [1] was “decreased” and the “Cyclin D1 mRNA” value [1] was “decreased”. For the same molecule, the E-cadherin transcription [1] was “increased”, the “FKBP5 mRNA” value [1] was “decreased” and the “PSA mRNA” value [1] was “decreased”. The “cMYC mRNA” value [1] was “decreased”.
